This note sets out measurements from doi:10.1101/2024.02.15.580468v1, “Morphing Cholinesterase Inhibitor Amiridine into Multipotent Drugs for the Treatment of Alzheimer’s Disease” (biorxiv, 2024).

Data set [1] concerns the target T1, hAChE (human recombinant acetylcholinesterase) (Homo sapiens, UniProt P22303).
T1 construct: gene ACHE; recombinant enzyme, purchased from Sigma-Aldrich
The data set is described as follows: biochemical. Also on record: modified Ellman assay, cholinesterase activity, absorbance at 412 nm. The method, then: (§1) The inhibitory activities of 5–7 and all the reference compounds were determined using modified Ellman’s method against human recombinant AChE (hAChE, E.C. 3.1.1.7, purchased from Sigma-Aldrich, Prague, Czech Republic) and human plasmatic BChE (hBChE, E.C. 3.1.1.8, purchased from Sigma-Aldrich, Prague, Czech Republic). The results are expressed as IC50 (the concentration of the compound that is required to reduce 50% of cholinesterase activity). Other used compounds – phosphate buffer solution (PBS, pH = 7.4), 5,5’-dithio-bis(2-nitrobenzoic) acid (Ellman’s reagent, DTNB), acetylthiocholine (ATCh) and butyrylthiocholine (BTCh) were also commercially available and were purchased from Sigma-Aldrich (Prague, Czech Republic). During the measurement, 96-well microplates from polystyrene (ThermoFisher Scientific, Waltham, MA, USA) were used. The solutions of corresponding enzyme in PBS were prepared up to final activity 0.002 U/µL. The assay medium (100 µL) consisted of cholinesterase (10 µL), DTNB (20 µL of 0.01 M solution) and PBS (40 µL of 0.1 M solution). The solutions of the tested compounds (10 µL of different concentrations) were pre- incubated for 5 minutes in the assay medium and then solution of substrate (20 µL of 0.01 M ATCh or BTCh iodide solution) was added to initiate the reaction. The increase of absorbance was measured at 412 nm using Multimode microplate reader Synergy 2 (BioTek Inc., Winooski, VT, USA). For the calculation of the resulting measured activity (the percentage of inhibition I) following formula was used: [drawing 1] where ΔAi indicates absorbance change provided by adequate enzyme exposed to corresponding inhibitor and ΔA0 indicates absorbance change when a solution of PBS was added instead of a solution of inhibitor. Software Microsoft Excel (Redmont, WA, USA) and GraphPad Prism version 5.02 for Windows (GraphPad Software, San Diego, CA, USA) were used for the statistical data evaluation. ChEs are enzymes responsible for the hydrolysis and metabolism of various endogenous and exogenous substrates, that are broadly studied in association with disease conditions like myasthenia gravis or AD. The primary attention in the development of AD drugs has been paid to AChE inhibitors. Nevertheless, there is growing interest in nonselective or BChE-selective inhibitors due to the compensatory role of BChE when AChE levels are depleted during the progression of AD [23]. Selective BChE inhibitors may be beneficial for patients in moderate-to-severe stages of AD [23, 24]. […] Accordingly, we assessed the inhibition activities of these novel compounds against human recombinant AChE (hAChE) and human serum BChE (hBChE) following a modified spectrophotometric protocol developed by Ellman et al.. […] Complete data are available in the Supplementary Information (Table S1), including the inhibition percentages for all derivatives. Amiridine hydrochloride (amiridine.HCl) and tacrine (THA) were used as reference compounds. […] Only a superficial structure-activity relationship for AChE inhibition can be drawn from the obtained data. […] The presence of any substituent on the benzothiazole core enhanced anti-AChE activity, with the best-tolerated position for the substituent being 6 for derivatives with halogen atoms (7b-d with bromine or 7g-h with [compound left out]. h

Data set [2] addresses T2, hBChE (human serum / plasmatic butyrylcholinesterase) (Homo sapiens, UniProt P06276).
T2 construct: gene BCHE; native enzyme from human plasma/serum, purchased from Sigma-Aldrich
The data set is described as follows: biochemical. The arrangement: modified Ellman assay, cholinesterase activity, absorbance at 412 nm. The method, then: as §1

Data set [3] is described as follows: in vitro. Also on record: MTT viability assay, HepG2 cells. To be noted: human, hepg2 cells; read-out: HepG2 IC50. Here is the method: (§2) The cytotoxic profile of 5–7 was carried through the use of the MTT (3-(4,5-dimethylthiazol-2-yl)-2,5-diphenyltetrazolium bromide) assay on human neuroblastoma (SH-SY5Y) and hepatocellular carcinoma (HepG2) cell lines, following established protocols. The cytotoxicity was assessed on SH-SY5Y cells in undifferentiated and in differentiated form. The data obtained from the measurements on the undifferentiated SH-SY5Y and HepG2 cells are summarized in Table 1 for 5c-d, 7c and 7g, as well as for the reference compounds amiridine hydrochloride and THA. Additional data can be found in Supplementary Information (Table S2 and Fig. S1). The both cell lines were cultured according to ECACC recommended conditions and seeded into 96-well plates in 100 µL and density of 8000 per well. For evaluation of cytotoxicity of the differentiated form the SH-SY5Y cells also underwent 9-day differentiation protocol into mature neurons according to Riegerová et al .. The tested compounds were dissolved in DMSO (Sigma Aldrich) or in phosphate buffer saline (PBS, Sigma Aldrich) and subsequently in the growth medium - high glucose Dulbecco’s Modified Eagle’s medium (DMEM; Sigma-Aldrich, D6429). […] Then, the differentiated SH-SY5Y cells were treated with concentrations corresponding to IC50 values obtained from the cytotoxicity measurement using undifferentiated SH-SY5Y cells. Cells were exposed to a tested compound for 24 h. Then the medium was replaced by a medium containing 10 μM of MTT and cells were allowed to produce formazan for another approximately 3 h under surveillance. Thereafter, medium was aspirated and purple crystals of MTT formazan were dissolved in 100 μL DMSO under shaking. Cell viability was assessed spectrophotometrically by the amount of formazan produced. Absorbance was measured at 570 nm with 650 nm reference wavelength on Spark (Tecan Group Ltd, Switzerland). The IC50 value was then calculated from the control-subtracted triplicates using non-linear regression (four parameters) of GraphPad Prism 9 software. Final IC50 and SEM values were obtained as a mean of three independent measurements.

The nature of data set [4]: in vitro. To be noted: human, undifferentiated sh-sy5y cells, read-out: SH-SY5Y IC50. The arrangement: MTT viability assay, undifferentiated SH-SY5Y cells. Here is the method:
as §2

Data set [5] in a line: in vitro. The arrangement: PAMPA blood-brain barrier permeability, effective permeability Pe. To be noted: PAMPA-BBB Pe. An excerpt:
page 5 / Table S2. Cytotoxicity profiles of 5–7 on SH-SY5Y cell line and predictions to BBB penetration by PAMPA results. / Pe (10^-6 cm.s^-1)

The target in data set [6] is T2, hBChE (human serum / plasmatic butyrylcholinesterase). As to the kind of experiment: modified Ellman assay, […] nm. In kind it is biochemical. (Ellman's reagent forms a yellow product with free thiols.)

Like-named read-outs stand apart in the source and are kept apart here.

T2 sequence (P06276 29-602): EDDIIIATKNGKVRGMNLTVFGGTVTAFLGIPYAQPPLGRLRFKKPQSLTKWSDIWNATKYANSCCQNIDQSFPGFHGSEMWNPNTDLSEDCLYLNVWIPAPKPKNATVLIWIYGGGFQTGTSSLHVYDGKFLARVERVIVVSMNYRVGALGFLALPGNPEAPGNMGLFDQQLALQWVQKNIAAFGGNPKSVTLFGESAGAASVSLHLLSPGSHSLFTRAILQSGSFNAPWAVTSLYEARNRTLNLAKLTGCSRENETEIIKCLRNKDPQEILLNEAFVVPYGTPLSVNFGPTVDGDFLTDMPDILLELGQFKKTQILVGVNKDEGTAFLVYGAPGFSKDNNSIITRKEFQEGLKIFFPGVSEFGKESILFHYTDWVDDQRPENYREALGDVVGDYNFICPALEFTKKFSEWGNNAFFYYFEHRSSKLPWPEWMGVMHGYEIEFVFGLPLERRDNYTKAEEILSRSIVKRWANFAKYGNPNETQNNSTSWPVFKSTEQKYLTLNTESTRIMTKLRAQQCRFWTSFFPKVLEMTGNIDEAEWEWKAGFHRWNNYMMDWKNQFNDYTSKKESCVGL
T1 sequence (P22303 32-614): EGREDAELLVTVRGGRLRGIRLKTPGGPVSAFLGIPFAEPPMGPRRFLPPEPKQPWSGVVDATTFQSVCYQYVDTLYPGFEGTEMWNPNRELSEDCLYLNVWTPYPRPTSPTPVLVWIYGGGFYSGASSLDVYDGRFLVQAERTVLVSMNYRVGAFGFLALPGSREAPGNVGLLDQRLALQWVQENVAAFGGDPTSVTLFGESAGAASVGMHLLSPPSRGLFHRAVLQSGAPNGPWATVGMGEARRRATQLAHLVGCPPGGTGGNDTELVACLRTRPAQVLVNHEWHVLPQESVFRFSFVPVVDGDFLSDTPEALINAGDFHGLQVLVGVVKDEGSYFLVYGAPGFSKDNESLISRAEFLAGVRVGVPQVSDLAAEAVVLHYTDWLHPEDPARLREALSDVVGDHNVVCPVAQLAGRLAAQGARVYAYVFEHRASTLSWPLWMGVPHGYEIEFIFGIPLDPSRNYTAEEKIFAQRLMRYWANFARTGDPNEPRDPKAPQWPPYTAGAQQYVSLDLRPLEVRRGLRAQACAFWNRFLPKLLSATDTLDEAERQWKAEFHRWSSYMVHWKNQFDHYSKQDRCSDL

Broadly, the inhibition is the drop in the measured response relative to a control, in per cent. Usually Papp stands for the rate of passage across a membrane or cell layer, normalised by area and donor concentration. On to `CC12CC3CC(C)(C1)CC(NCC(=O)Nc1c4c(nc5c1CCC5)CCCC4)(C3)C2` [5b], for which the inhibition at 1 µM amounted to 9.13 ± 0.48% in data set [1] and 18.6 ± 0.65% in data set [2]. Besides, the CC50 at 24 h in “in vitro [3]” worked out at 19.5 ± 1.72 µM; in the data set “in vitro [4]”, 31 ± 2.76 µM. For the same molecule, the Papp in “in vitro [5]” came out at 7.63 ± 0.09 ×10⁻⁶ cm/s.

For `Clc1nc2ccccc2s1` [7a, 2-chlorobenzothiazole], the inhibition at 1 µM in data set [1] was 1.46 ± 0.17%; in data set [2] it was 7.19 ± 0.91%. The CC50 at 24 h in “in vitro [3]” was not below 200 µM; in the data set “in vitro [4]”, 72.3 ± 6.89 µM. For the same molecule, in “in vitro [5]”, the apparent permeability (Papp) turned out to be 20.6 ± 0.44 ×10⁻⁶ cm/s.

As to `O=C(CNc1nc2ccc(Br)cc2s1)Nc1c2c(nc3c1CCC3)CCCC2` [7b, 2-[(6-bromo-1,3-benzothiazol-2-yl)amino]-N-{1H,2H,3H,5H,6H,7H,8H-cyclopenta[b]quinolin-9-yl}acetamide], the inhibition at 1 µM in data set [1] was found to be 18.5 ± 0.37%; in data set [2], 10.83 ± 0.09%. Besides, the CC50 at 24 h in the data set “in vitro [3]” and in “in vitro [4]” was not below 200 µM each time. In addition, the apparent permeability (Papp) in “in vitro [5]” amounted to 3.74 ± 0.36 ×10⁻⁶ cm/s.

As usually defined, the IC50 is the concentration at which inhibition is half-maximal. Lower therefore signals greater potency. For the molecule `O=C(CNc1nc2cc(Br)ccc2s1)Nc1c2c(nc3c1CCC3)CCCC2` [7c, 2-[(5-bromo-1,3-benzothiazol-2-yl)amino]-N-{1H,2H,3H,5H,6H,7H,8H-cyclopenta[b]quinolin-9-yl}acetamide], the results for the inhibition at 1 µM in data set [1] and in data set [2] were 15.7 ± 1.17% and 25 ± 2.39%, respectively. The molecule also yielded an IC50 in data set [6] of 4.9 ± 0.4 µM. The CC50 at 24 h is 21.61 ± 0.21 µM in “in vitro [3]” and 17.7 ± 2.34 µM in the data set “in vitro [4]”. In addition, the Papp in “in vitro [5]” was determined as 2.13 ± 1.04 ×10⁻⁶ cm/s.

Turning to `O=C(CNc1nc2c(Br)cccc2s1)Nc1c2c(nc3c1CCC3)CCCC2` [7d, 2-[(4-bromo-1,3-benzothiazol-2-yl)amino]-N-{1H,2H,3H,5H,6H,7H,8H-cyclopenta[b]quinolin-9-yl}acetamide], the values for the inhibition at 1 µM in data set [1] and in data set [2] were 1.8 ± 0.33% and 6.73 ± 0.45%, respectively. Further, the figures for the CC50 at 24 h in “in vitro [3]” and in the data set “in vitro [4]” were 14.5 ± 1.84 µM and 111 ± 5.6 µM, respectively. In addition, the Papp in “in vitro [5]” was 2.62 ×10⁻⁶ cm/s.

As for `N#Cc1ccc2sc(NCC(=O)Nc3c4c(nc5c3CCC5)CCCC4)nc2c1` [7e, 2-[(5-cyano-1,3-benzothiazol-2-yl)amino]-N-{1H,2H,3H,5H,6H,7H,8H-cyclopenta[b]quinolin-9-yl}acetamide], the inhibition at 1 µM in data set [1] turned out to be 13.3 ± 0.57%; in data set [2], 13.9 ± 0.6%. In addition, the CC50 at 24 h in the data set “in vitro [3]” amounted to 26.4 ± 1.82 µM; in the data set “in vitro [4]”, 77.4 ± 4.54 µM. For the same molecule, in “in vitro [5]”, the Papp came out at 13.9 ± 1.26 ×10⁻⁶ cm/s.

Take `O=C(CNc1nc2cc(Cl)ccc2s1)Nc1c2c(nc3c1CCC3)CCCC2` [7g, 2-[(5-chloro-1,3-benzothiazol-2-yl)amino]-N-{1H,2H,3H,5H,6H,7H,8H-cyclopenta[b]quinolin-9-yl}acetamide]: the inhibition at 1 µM came to 11.9 ± 0.74% in data set [1] and 26.5 ± 1.45% in data set [2]. For the same molecule, it took 11 ± 1.2 µM to reach half-maximal inhibition in data set [6] (IC50). In addition, the CC50 at 24 h in the data set “in vitro [3]” was not below 200 µM; in the data set “in vitro [4]”, 98.2 ± 5.74 µM. Besides, the apparent permeability coefficient (Papp) in “in vitro [5]” was determined as 2.8 ± 0.79 ×10⁻⁶ cm/s.

As for `O=C(CNc1nc2ccc([N+](=O)[O-])cc2s1)Nc1c2c(nc3c1CCC3)CCCC2` [7i, N-{1H,2H,3H,5H,6H,7H,8H-cyclopenta[b]quinolin-9-yl}-2-[(6-nitro-1,3-benzothiazol-2-yl)amino]acetamide], the values for the inhibition at 1 µM in data set [1] and in data set [2] were 7.98 ± 0.99% and 0.93 ± 0.08%, respectively. Further, the CC50 at 24 h was not below 200 µM in the data set “in vitro [3]” and 91.3 ± 11 µM in the data set “in vitro [4]”. Besides, the Papp in the data set “in vitro [5]” was 4.89 ± 1.5 ×10⁻⁶ cm/s.

Regarding `O=C(CNc1nc2cc([N+](=O)[O-])ccc2s1)Nc1c2c(nc3c1CCC3)CCCC2` [7j, N-{1H,2H,3H,5H,6H,7H,8H-cyclopenta[b]quinolin-9-yl}-2-[(5-nitro-1,3-benzothiazol-2-yl)amino]acetamide], the inhibition at 1 µM in data set [1] stood at 8.2 ± 0.41%; in data set [2] it was 8.03 ± 1.37%. Besides, the CC50 at 24 h in “in vitro [3]” was 25.83 ± 0.25 µM; in “in vitro [4]”, 93.7 ± 5.38 µM. This molecule also came in with a Papp in “in vitro [5]” of 1.83 ± 0.54 ×10⁻⁶ cm/s.

Regarding `O=C(CNc1nc2cccc([N+](=O)[O-])c2s1)Nc1c2c(nc3c1CCC3)CCCC2` [7k, N-{1H,2H,3H,5H,6H,7H,8H-cyclopenta[b]quinolin-9-yl}-2-[(7-nitro-1,3-benzothiazol-2-yl)amino]acetamide], the inhibition at 1 µM in data set [1] was 9.62 ± 0.41%; in data set [2], 4.47 ± 0.58%. For the same molecule, the figures for the CC50 at 24 h in the data set “in vitro [3]” and in “in vitro [4]” were not below 200 µM and 51 ± 8.56 µM, respectively. For the same molecule, the Papp in the data set “in vitro [5]” turned out to be 1.12 ± 0.62 ×10⁻⁶ cm/s.

Take `CSc1ccc2nc(NCC(=O)Nc3c4c(nc5c3CCC5)CCCC4)sc2c1` [7l, N-{1H,2H,3H,5H,6H,7H,8H-cyclopenta[b]quinolin-9-yl}-2-{[6-(methylsulfanyl)-1,3-benzothiazol-2-yl]amino}acetamide]: the inhibition at 1 µM was found to be 7.56 ± 0.38% in data set [1] and 6.05 ± 1.77% in data set [2]. In addition, the CC50 at 24 h in “in vitro [3]” was not below 200 µM; in “in vitro [4]”, 173 ± 17.6 µM. In addition, the Papp in “in vitro [5]” stood at 2.65 ± 0.01 ×10⁻⁶ cm/s.

As for `Cc1c(C)c2c(c(C)c1O)CCC(C)(C(=O)NCC(=O)Nc1c3c(nc4c1CCC4)CCCC3)O2` (stereo not shown) [compound 6, N-{1H,2H,3H,5H,6H,7H,8H-cyclopenta[b]quinolin-9-yl}-2-[(6-hydroxy-2,5,7,8-tetramethyl-3,4-dihydro-2H-1-benzopyran-2-yl)formamido]acetamide], the figures for the inhibition at 1 µM in data set [1] and in data set [2] were 3.95 ± 0.25% and 21.5 ± 0.94%, respectively. In addition, the CC50 at 24 h in the data set “in vitro [4]” was not below 200 µM. The Papp in the data set “in vitro [5]” is 15.9 ± 0.38 ×10⁻⁶ cm/s.
